Experimental data reported in patent publication US8546409B2, “Methods of treatment for solid tumors” (priority 2009, dated 2013).
“Also recorded” adds a separate entry of the source. Where two headings read alike, the source gives them in different places.

Experiments:
p110α = biological target: T1, p110α (Mus musculus, UniProt P42337); assay: Cell-based p110α assay: PDGF-stimulated Akt phosphorylation in SW3T3 cells
T1 construct: endogenous in cells; host or cells: SW3T3 cells
Procedure: (§1) The p110α assay used SW3T3 cells stimulated by PDGF, and p110 kinase activity was measured by Akt phosphorylation. The p110β activity was measured by lysophosphatidic acid stimulation of Akt phosphorylation in mouse embryonic fibroblasts. The activity of p110δ was measured by anti-FcεR1 antibody cross linking stimulation of CD63 movement to the surface of basophils. Finally, the activity of p110γ was measured by fMLP stimulation of CD63 antigen movement to the cell surface of basophils.

OVCAR-3 xenografts = assay: Ovarian cancer cell xenografts in nu/nu mice (FIG. 8); assay type: in vivo; conditions: 30 mg/kg BID, 36 days, female nu/nu mice
Procedure: Female nu/nu mice bearing OVCAR-3 xenografts (human ovarian cancer cells) were maintained until tumor volume measured about 100 mm^3. At that point, treatment began with compound I at a rate of 30 mg/kg administered twice per day.

SN12C = assay: NCI panel growth inhibition, SN12C; assay type: cell-based; conditions: Homo sapiens, Renal
Source text: (§2) Compound I has also been tested in a battery of tumor cell assays known as the NCI panel.

U251 = assay: NCI panel growth inhibition, U251; assay type: cell-based; conditions: Homo sapiens, U-251, CNS Cancer
Source text: as §2

HCT-15 = assay: NCI panel growth inhibition, HCT-15; assay type: cell-based; conditions: Homo sapiens, Colon Cancer
Source text: as §2

BT-549 = assay: NCI panel growth inhibition, BT-549; assay type: cell-based; conditions: Homo sapiens, Breast Cancer
Source text: as §2

SNB-75 = assay: NCI panel growth inhibition, SNB-75; assay type: cell-based; conditions: Homo sapiens, CNS Cancer
Source text: as §2

PIKC3 = PIKC3 (Homo sapiens, UniProt Q8NEB9); assay: biochemical
Source text: This table provides IC-50's for inhibition of kinase activity of these other lipid kinases: […]

T47D = assay: Tumor cell culture growth, optical density at 459 nm (FIG. 7), T47D; assay type: cell-based; conditions: 5-10 micromolar
A549 = assay: NCI panel growth inhibition, A549; assay type: cell-based; conditions: Homo sapiens, Non-Small Cell Lung Cancer
Source text: as §2

p110γ = biological target: T2, p110γ (Homo sapiens, UniProt P48736); assay: Cell-based p110γ assay: fMLP stimulated CD63 movement to surface of basophils
T2 construct: endogenous in cells; host or cells: basophils
Procedure: as §1

MDA-MB-231 = assay: NCI panel growth inhibition, MDA-MB-231; assay type: cell-based; conditions: Homo sapiens, Breast Cancer
Source text: as §2

SK-MEL-5 = assay: NCI panel growth inhibition, SK-MEL-5; assay type: cell-based; conditions: Homo sapiens, Melanoma
Source text: as §2

NCI-H322M = assay: NCI panel growth inhibition, NCI-H322M; assay type: cell-based; conditions: Homo sapiens, Non-Small Cell Lung Cancer
Source text: as §2

UO-31 = assay: NCI panel growth inhibition, UO-31; assay type: cell-based; conditions: Homo sapiens, Renal
Source text: as §2

A498 = assay: NCI panel growth inhibition, A498; assay type: cell-based; conditions: Homo sapiens, Renal
Source text: as §2

T2 sequence (P48736 whole entry, species assumed): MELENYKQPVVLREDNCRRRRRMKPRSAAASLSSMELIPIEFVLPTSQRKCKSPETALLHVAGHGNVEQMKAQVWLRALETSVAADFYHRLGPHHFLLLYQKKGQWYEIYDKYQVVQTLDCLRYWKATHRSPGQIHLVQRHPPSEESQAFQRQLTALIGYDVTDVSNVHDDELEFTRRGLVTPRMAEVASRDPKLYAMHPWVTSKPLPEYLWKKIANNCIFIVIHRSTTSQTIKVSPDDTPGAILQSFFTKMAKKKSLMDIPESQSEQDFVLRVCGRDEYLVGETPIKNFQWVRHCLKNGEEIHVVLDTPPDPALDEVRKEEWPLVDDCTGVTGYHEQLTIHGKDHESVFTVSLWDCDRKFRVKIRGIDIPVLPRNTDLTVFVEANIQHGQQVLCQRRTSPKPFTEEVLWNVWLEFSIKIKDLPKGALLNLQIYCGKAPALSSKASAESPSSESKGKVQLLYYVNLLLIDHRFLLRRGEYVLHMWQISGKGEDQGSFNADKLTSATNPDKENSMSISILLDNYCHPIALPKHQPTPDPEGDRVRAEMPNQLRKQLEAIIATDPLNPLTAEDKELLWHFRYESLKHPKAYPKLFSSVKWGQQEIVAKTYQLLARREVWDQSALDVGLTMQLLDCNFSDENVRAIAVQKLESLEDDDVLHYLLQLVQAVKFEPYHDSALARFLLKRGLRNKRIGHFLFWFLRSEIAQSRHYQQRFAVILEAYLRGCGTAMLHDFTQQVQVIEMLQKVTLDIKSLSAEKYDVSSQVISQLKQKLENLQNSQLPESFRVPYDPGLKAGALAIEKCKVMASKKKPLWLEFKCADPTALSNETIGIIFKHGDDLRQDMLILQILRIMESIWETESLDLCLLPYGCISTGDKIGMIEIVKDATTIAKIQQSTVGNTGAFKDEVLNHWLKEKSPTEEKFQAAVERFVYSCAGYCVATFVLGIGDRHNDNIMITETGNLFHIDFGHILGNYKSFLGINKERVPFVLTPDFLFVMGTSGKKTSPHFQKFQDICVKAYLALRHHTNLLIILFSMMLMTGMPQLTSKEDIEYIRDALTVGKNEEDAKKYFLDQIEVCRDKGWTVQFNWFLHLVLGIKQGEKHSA
T1 sequence (P42337 whole entry): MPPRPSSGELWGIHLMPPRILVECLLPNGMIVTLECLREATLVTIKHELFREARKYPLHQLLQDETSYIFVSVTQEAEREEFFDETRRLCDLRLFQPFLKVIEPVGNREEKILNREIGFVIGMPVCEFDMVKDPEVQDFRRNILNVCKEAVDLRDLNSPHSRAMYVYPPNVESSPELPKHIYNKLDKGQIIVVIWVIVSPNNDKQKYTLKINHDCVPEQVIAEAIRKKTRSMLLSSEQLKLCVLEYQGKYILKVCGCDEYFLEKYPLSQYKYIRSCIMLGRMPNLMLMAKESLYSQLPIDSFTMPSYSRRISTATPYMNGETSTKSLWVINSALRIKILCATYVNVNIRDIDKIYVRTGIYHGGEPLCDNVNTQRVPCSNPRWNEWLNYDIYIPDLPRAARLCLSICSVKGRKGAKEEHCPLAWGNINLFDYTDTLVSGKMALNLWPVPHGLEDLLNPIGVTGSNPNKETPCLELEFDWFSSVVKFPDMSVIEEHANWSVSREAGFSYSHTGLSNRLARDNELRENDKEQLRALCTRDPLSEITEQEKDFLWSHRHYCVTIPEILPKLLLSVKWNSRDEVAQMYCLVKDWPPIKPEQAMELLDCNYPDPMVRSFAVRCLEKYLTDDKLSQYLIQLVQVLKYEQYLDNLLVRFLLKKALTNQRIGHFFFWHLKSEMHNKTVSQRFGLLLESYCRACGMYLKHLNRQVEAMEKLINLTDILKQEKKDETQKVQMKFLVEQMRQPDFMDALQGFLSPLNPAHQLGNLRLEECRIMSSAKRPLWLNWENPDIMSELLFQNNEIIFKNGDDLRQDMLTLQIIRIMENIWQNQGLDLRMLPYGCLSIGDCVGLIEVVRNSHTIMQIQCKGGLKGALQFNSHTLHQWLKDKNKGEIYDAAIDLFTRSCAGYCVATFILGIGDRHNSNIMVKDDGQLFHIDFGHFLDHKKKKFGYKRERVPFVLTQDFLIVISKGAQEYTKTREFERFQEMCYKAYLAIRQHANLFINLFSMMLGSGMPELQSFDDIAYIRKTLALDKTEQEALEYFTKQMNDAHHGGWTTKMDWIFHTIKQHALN
T1 sequence (P26450 whole entry partner): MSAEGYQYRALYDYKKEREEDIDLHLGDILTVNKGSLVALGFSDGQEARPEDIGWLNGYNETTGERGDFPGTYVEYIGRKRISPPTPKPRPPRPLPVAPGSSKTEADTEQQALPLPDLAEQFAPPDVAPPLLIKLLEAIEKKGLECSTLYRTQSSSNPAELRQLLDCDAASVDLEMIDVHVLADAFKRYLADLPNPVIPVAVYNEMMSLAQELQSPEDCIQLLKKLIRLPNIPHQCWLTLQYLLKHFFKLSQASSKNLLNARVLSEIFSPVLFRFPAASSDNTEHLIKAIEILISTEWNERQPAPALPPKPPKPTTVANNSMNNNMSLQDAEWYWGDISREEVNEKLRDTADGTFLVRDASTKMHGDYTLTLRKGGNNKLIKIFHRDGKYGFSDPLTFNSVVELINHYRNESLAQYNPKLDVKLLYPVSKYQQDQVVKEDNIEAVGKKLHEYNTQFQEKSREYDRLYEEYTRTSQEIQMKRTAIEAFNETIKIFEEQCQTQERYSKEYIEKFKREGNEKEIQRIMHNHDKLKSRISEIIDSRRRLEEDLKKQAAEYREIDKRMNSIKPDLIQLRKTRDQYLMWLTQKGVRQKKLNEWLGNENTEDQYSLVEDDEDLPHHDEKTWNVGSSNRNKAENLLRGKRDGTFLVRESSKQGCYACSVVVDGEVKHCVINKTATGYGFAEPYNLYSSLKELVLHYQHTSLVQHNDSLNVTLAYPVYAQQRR
Chain of PIKC3 (Q8NEB9 whole entry): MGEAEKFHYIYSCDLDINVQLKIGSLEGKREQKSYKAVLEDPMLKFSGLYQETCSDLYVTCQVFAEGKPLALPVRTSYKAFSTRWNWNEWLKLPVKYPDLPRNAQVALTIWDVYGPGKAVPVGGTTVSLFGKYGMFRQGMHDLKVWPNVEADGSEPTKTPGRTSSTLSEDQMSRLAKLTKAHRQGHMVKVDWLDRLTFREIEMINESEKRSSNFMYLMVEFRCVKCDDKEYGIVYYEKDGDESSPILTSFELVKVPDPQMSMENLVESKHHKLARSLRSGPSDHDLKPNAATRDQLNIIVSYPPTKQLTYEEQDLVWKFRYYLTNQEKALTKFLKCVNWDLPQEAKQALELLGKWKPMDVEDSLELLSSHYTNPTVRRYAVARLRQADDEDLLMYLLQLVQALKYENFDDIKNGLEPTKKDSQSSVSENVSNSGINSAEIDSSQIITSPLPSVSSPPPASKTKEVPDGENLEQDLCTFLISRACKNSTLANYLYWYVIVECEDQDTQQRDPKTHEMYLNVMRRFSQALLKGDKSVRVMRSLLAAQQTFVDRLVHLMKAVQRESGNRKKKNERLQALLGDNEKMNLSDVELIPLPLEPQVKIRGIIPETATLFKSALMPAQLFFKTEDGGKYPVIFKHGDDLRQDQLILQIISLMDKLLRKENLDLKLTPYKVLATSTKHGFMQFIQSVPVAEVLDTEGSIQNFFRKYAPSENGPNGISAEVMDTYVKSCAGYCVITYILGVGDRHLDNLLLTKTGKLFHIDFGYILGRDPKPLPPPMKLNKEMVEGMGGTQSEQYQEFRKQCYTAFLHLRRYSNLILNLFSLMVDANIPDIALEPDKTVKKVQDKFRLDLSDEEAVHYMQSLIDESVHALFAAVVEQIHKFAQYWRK

**Q.** Which results are given for `C[C@H](Nc1ncnc2[nH]cnc12)c1nc2ccc(F)cc2c(=O)n1-c1ccccc1` [Compound I]?
**A.** EC50 (p110α): > 20 µM; Tumor volume of OVCAR-3 xenograft (OVCAR-3 xenografts): the size of the existing tumor was actually reduced; also recorded: completely inhibited growth; also recorded: Tumor volume actually decreased; GI50 (SN12C): 22.5 µM; GI50 (U251): 59.6 µM; GI50 (HCT-15): 30.3 µM; GI50 (BT-549): 0.538 µM; GI50 (SNB-75): 0.0594 µM; IC50 (PIKC3): 2.5 µM; Inhibition of tumor cell culture growth (T47D): strong inhibition of growth; GI50 (A549): 20.7 µM; EC50 (p110γ; FB, read-out: Cell-based assay EC50 p110γ, FB): 3 µM; EC50 (p110γ; WB, read-out: Cell-based assay EC50 p110γ, WB): 5.4 µM; GI50 (MDA-MB-231): 100 µM; GI50 (SK-MEL-5): 31.3 µM; GI50 (NCI-H322M): 10.5 µM; GI50 (UO-31): 2.01 µM; GI50 (A498): 0.615 µM
